This test has as its target T1, canine TRPM8 (Canis lupus familiaris, UniProt Q1A7N1).
T1 construct: expressed in transfected cells
The test can be described thus: In vitro canine TRPM8 functional assay (Ca2+-sensitive fluorescent dye, FLIPR or FDSS, icilin challenge). The settings on record: HEK293 cells stably expressing canine TRPM8; for inhibition at 0.2 µM: 0.2 μM compound, icilin challenge; for IC50: icilin at approx. 80% maximal response, eight-point dose-response, single determinations unless otherwise noted, read-out: IC50. The format is cell-based. On the procedure: The functional activity of compounds of the formula (I) was determined by measuring changes in intracellular calcium concentration using a Ca^2+-sensitive fluorescent dye. The changes in fluorescent signal were monitored by a fluorescence plate reader, either a FLIPR™ (Molecular Devices) or FDSS (Hamamatsu).
At 24 hrs prior to assay, HEK293 cells stably expressing canine TRPM8 were seeded in culture medium in black wall, clear-base poly-D-lysine coated 384-well plates (BD Biosciences, NJ, USA) and grown overnight in 5% CO2 at 37° C. On assay day, growth media was removed and cells were loaded with Calcium 3 Dye (Molecular Devices) for 35 min at 37° C., under 5% CO2 and then for 25 min at room temperature and atmosphere. Subsequently, cells were tested for agonist-induced increases in intracellular Ca^2+ levels using FLIPR™ or FDSS. Cells were challenged with a compound of the Formula (I) (at varying concentrations) and intracellular Ca^2+ was measured for 5 min prior to the addition of icilin to all wells to achieve a final concentration that produces approximately an 80% maximal response. EC50 or IC50 values for compounds of the present invention were determined from eight-point dose-response studies. Curves were generated using the average of quadruplicate wells for each data point.

This is an account of results in patent publication US8148422B2, “Sulfonamides as TRPM8 modulators” (Janssen Pharmaceutica, NV, priority 2008, dated 2012).

T1 sequence (Q1A7N1 1-1104): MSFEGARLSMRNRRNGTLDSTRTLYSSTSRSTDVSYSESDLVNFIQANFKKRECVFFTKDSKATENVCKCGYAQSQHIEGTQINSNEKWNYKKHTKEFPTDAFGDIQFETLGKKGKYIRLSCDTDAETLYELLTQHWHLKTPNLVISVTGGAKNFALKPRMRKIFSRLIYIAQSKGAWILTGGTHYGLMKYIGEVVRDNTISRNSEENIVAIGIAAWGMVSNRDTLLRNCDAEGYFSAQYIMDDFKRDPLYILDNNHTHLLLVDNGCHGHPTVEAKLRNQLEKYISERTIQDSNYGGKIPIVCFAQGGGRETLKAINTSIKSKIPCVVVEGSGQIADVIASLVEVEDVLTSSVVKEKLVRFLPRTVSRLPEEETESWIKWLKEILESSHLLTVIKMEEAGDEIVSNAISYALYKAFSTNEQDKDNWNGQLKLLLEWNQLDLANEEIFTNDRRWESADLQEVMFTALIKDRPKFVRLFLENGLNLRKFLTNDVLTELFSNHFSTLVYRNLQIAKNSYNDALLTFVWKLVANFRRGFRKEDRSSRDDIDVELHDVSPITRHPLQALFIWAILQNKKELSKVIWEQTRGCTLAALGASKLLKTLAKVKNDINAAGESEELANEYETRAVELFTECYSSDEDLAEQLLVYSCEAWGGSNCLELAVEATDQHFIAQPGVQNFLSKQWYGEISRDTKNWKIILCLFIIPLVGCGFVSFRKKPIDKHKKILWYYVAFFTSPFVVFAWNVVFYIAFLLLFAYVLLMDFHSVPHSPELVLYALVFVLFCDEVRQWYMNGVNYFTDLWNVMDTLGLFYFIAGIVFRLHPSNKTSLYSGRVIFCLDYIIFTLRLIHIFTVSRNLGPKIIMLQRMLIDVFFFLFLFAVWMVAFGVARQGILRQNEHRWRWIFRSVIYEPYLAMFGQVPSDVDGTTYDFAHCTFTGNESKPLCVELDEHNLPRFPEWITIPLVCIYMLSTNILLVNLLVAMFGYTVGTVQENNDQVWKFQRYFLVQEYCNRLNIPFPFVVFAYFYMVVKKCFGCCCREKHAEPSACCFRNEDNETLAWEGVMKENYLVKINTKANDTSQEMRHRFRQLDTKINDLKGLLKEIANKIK

As a reminder, the inhibition is the change of the read-out against control, counted positive when it falls. The term IC50 denotes the concentration that inhibits the measured activity by half. For the compound `CCOC(=O)CNCCS(=O)(=O)N(Cc1ccc(OC(F)(F)F)cc1)c1sc2ccccc2c1C` [Cpd 47, N-(3-Methylbenzo[b]thiophen-2-yl)-N-(4-trifluoromethoxy-benzyl)-2-[(carboethoxymethyl)amino]ethylsulfonamide], the inhibition at 0.2 µM turned out to be 83% and the IC50 is 51 nM.

Regarding `CCCN(CCC)CCS(=O)(=O)N(Cc1ccc(OC(F)(F)F)cc1)c1ccc2ccccc2c1` [Cpd 50, N-(Naphth-2-yl)-N-(4-trifluoromethoxy-benzyl)-2-(di-propylamino)ethylsulfonamide], the inhibition at 0.2 µM came out at 62%.

On to `O=S(=O)(CCN1CCCCC1)N(Cc1ccc(OC(F)(F)F)cc1)c1sc2ccccc2c1Cl` [Cpd 3, N-(3-Chlorobenzo[b]thiophen-2-yl)-N-(4-trifluoromethoxy-benzyl)-2-(piperidin-1-yl)ethylsulfonamide], for which the inhibition at 0.2 µM was found to be 97% and the half-maximal inhibitory concentration (IC50) was 30 nM.

For the compound `CCCN(CCS(=O)(=O)N(Cc1ccc(OC(F)(F)F)cc1)c1sc2ccccc2c1C)CC(C)C` [Cpd 82, N-(3-Methylbenzo[b]thiophen-2-yl)-N-(4-trifluoromethoxy-benzyl)-2-(isobutyl-propylamino)ethylsulfonamide], the inhibition at 0.2 µM was found to be 100% and the IC50 is 16 nM.

As for `CCCN(CCS(=O)(=O)N(CCC1CC1)c1sc2ccccc2c1C)CC(C)C` [Cpd 95, N-(3-Methylbenzo[b]thiophen-2-yl)-N-(2-cyclopropyl-ethyl)-2-(n-propyl-isobutylamino)ethylsulfonamide], the inhibition at 0.2 µM amounted to 103% and the IC50 was 23 nM.

Consider `Cc1c(N(Cc2ccc(OC(F)(F)F)cc2)S(=O)(=O)CCN2CCNC(=O)C2)sc2ccccc12` [Cpd 27, N-(3-Methylbenzo[b]thiophen-2-yl)-N-(4-trifluoromethoxy-benzyl)-2-(3-oxopiperazin-1-yl)ethylsulfonamide], for which the inhibition at 0.2 µM was found to be 101% and the IC50 amounted to 20 nM.

As to `Cc1c(N(Cc2ccc(OC(F)(F)F)cc2)S(=O)(=O)CCN2CCC[C@H]2C(F)(F)F)sc2ccccc12` [Cpd 71, N-(3-Methylbenzo[b]thiophen-2-yl)-N-(4-trifluoromethoxy-benzyl)-2-[2(S)-trifluoromethyl-pyrrolidin-1-yl]ethylsulfonamide], the inhibition at 0.2 µM was determined as 100% and the IC50 came to 4 nM.

On to `CC(C)CN(CCS(=O)(=O)N(Cc1ccc(OC(F)(F)F)cc1)c1ccc2ccccc2c1)CC(C)C` [Cpd 96, N-(Naphth-2-yl)-N-(4-trifluoromethoxy-benzyl)-2-(diisobutylamino)-ethylsulfonamide], for which the inhibition at 0.2 µM stood at 72% and the IC50 is 153 nM.

Regarding `Cc1c(N(Cc2ccc(OC(F)(F)F)cc2)S(=O)(=O)CCN2CC(F)(F)C2)sc2ccccc12` [Cpd 46, N-(3-Methylbenzo[b]thiophen-2-yl)-N-(4-trifluoromethoxy-benzyl)-2-(3,3-ditluoroazetidin-1-yl)ethylsulfonamide], the inhibition at 0.2 µM was determined as 101% and the IC50 stood at 4 nM.

Consider `Cc1c(N(Cc2ccc(F)cc2)S(=O)(=O)CCN2CCCC(F)(F)C2)sc2ccccc12` [Cpd 69, N-(3-Methyl-benzo[b]thiophen-2-yl)-N-(4-fluoro-benzyl)-2-(3,3-difluoropiperidin-1-yl)-ethylsulfonamide], for which the inhibition at 0.2 µM came to 99% and the IC50 was determined as 12 nM.

Consider `CCCCN(CCCC)CCS(=O)(=O)N(Cc1ccc(OC(F)(F)F)cc1)c1sc2ccccc2c1C` [Cpd 15, N-(3-Methylbenzo[b]thiophen-2-yl)-N-(4-trifluoromethoxy-benzyl)-2-(dibutylamino)ethylsulfonamide], for which the inhibition at 0.2 µM amounted to 100% and the IC50 came to 22 nM.

Regarding `Cc1c(N(Cc2ccc(OC(F)(F)F)cc2)S(=O)(=O)CCN2CCC[C@@H]2C(F)(F)F)sc2ccccc12` [Cpd 72, N-(3-Methylbenzo[b]thiophen-2-yl)-N-(4-trifluoromethoxy-benzyl)-2-[2(R)-trifluoromethyl-pyrrolidin-1-yl]ethylsulfonamide], the inhibition at 0.2 µM was determined as 100% and the IC50 was 10 nM.

Turning to `CCN(CCS(=O)(=O)N(CCC1CC1)c1sc2ccccc2c1C)CC(C)C` [Cpd 94, N-(3-Methylbenzo[b]thiophen-2-yl)-N-(2-cyclopropyl-ethyl)-2-(ethyl-isobutylamino)ethylsulfonamide], the inhibition at 0.2 µM was 103% and the IC50 is 27 nM.

Turning to `Cc1c(N(Cc2ccc(OC(F)(F)F)cc2)S(=O)(=O)CCN2CCCCC2)sc2ccccc12` [Cpd 18, N-(3-Methylbenzo[b]thiophen-2-yl)-N-(4-trifluoromethoxy-benzyl)-2-(piperidin-1-yl)ethylsulfonamide], the inhibition at 0.2 µM worked out at 99% and the IC50 amounted to 26 nM.

As for `CC(=O)N(CCS(=O)(=O)N(CCC1CC1)c1sc2ccccc2c1C)CC(C)C` [Cpd 92, N-(3-Methylbenzo[b]thiophen-2-yl)-N-(2-cyclopropyl-ethyl)-2-(N-acetyl-isobutylamino)ethylsulfonamide], the inhibition at 0.2 µM worked out at 101% and the IC50 came to 35 nM.

Turning to `Cc1c(N(Cc2ccc(OC(F)(F)F)cc2)S(=O)(=O)CCN(C)CCO)sc2ccccc12` [Cpd 10, N-(3-Methylbenzo[b]thiophen-2-yl)-N-(4-trifluoromethoxy-benzyl)-2-(methyl-2-hydroxyethylamino)ethylsulfonamide], the inhibition at 0.2 µM amounted to 98% and the IC50 came out at 29 nM.

For `Cc1c(N(Cc2ccc(OC(F)(F)F)cc2)S(=O)(=O)CCNCCC(F)(F)F)sc2ccccc12` [Cpd 13, N-(3-Methylbenzo[b]thiophen-2-yl)-N-(4-trifluoromethoxy-benzyl)-2-(3,3,3-trifluoropropylamino)ethylsulfonamide], the inhibition at 0.2 µM stood at 72% and the concentration for half-maximal inhibition (IC50) worked out at 74 nM.

For `O=S(=O)(CCN1CCC(c2ccccc2)CC1)N(Cc1ccc(OC(F)(F)F)cc1)c1ccc2ccccc2c1` [Cpd 53, N-(Naphth-2-yl)-N-(4-trifluoromethoxy-benzyl)-2-(4-phenylpiperidin-1-yl)ethylsulfonamide], the inhibition at 0.2 µM was 58%.

In the case of `CCN(CCS(=O)(=O)N(CCCCC(F)(F)F)c1sc2ccccc2c1C)CC(C)C` [Cpd 89, N-(3-Methylbenzo[b]thiophen-2-yl)-N-(5,5,5-tritluoro-n-pent-1-yl)-2-(ethyl-isobutylamino)ethylsulfonamide], the inhibition at 0.2 µM was found to be 99% and the concentration for half-maximal inhibition (IC50) is 36 nM.

For `Cc1c(N(Cc2ccc(OC(F)(F)F)cc2)S(=O)(=O)CCN2CCN(C)CC2)sc2ccccc12` [Cpd 28, N-(3-Methylbenzo[b]thiophen-2-yl)-N-(4-trifluoromethoxy-benzyl)-2-(4-methylpiperazin-1-yl)ethylsulfonamide], the inhibition at 0.2 µM was determined as 25%.

As to `Cc1c(N(Cc2ccc(OC(F)(F)F)cc2)S(=O)(=O)CCN2CCSCC2)sc2ccccc12` [Cpd 34, N-(3-Methylbenzo[b]thiophen-2-yl)-N-(4-trifluoromethoxy-benzyl)-2-(thiomorpholin-4-yl)ethylsulfonamide], the inhibition at 0.2 µM worked out at 100% and the IC50 is 7 nM.

For `CN(CCS(=O)(=O)N(Cc1ccc(OC(F)(F)F)cc1)c1ccc2ccccc2c1)Cc1ccccc1` [Cpd 57, N-(Naphth-2-yl)-N-(4-trifluoromethoxy-benzyl)-2-(benzyl-methylamino)ethylsulfonamide], the inhibition at 0.2 µM is 89% and the IC50 came to 52 nM.
